Experimental data taken from patent US11370775B2, “Substituted benzimidazole derivatives as D-amino acid oxidase (DAAO) inhibitors” (NATIONAL TAIWAN UNIVERSITY, priority 2016, dated 2022).

How the values were obtained:
porcine kidney DAO = molecular target: T1, porcine kidney DAO (Sus scrofa, UniProt P00371); test: pkDAO enzymatic assay (porcine kidney DAO IC50 assay); assay type: biochemical; details: D-alanine substrate, pH 8.3, 37° C., without FAD
T1 construct: purchased Sigma-Aldrich; host or cells: porcine kidney
Description: The DAAO enzymatic activity assay was modified according to the report of Oguri et al (Oguri, S., Screening of d-amino acid oxidase inhibitor by a new multi-assay method. Food chemistry 2007, 100 (2), 616). The DAAO activity was measured by using substrate D-alanine reaction produced hydrogen peroxide (H2O2) to further react with 3-(4-hydroxyphenyl) propionic acid (HPPA). The HPPA were oxidized by H2O2 and peroxidase to become the fluorogenic dimer which was measured to represent the activity of DAAO.
For porcine kidney DAO IC50 assay, the DAO substrate was prepared in 50 mM D-alanine (dissolved in 0.2 M Tris-HCl buffer, pH 8.3). A 100 μl of D-alanine solution was mixed with 4 μl (in 100% dimethyl sulfoxide, DMSO) of different concentrations of candidate compounds shown in tables below ranging from 48.83 μM, 97.66 μM, 195.31 μM, 390.63 μM, 781.25 μM, 1.56 mM, 3.13 mM, 6.25 mM, 12.50 mM, 25.00 mM, and 50.00 mM, with a final DMSO concentration of 0.167% in each reaction concentration. 10 μl of D-alanine and candidate compound mixture was incubated with 220 μl of Reaction Master Mix in black 96 well plate at 37° C. for 5 minutes. The Reaction Master Mix contained 110 μl of 5 U/mL porcine kidney DAO (Sigma-Aldrich, USA) solution (dissolved with 0.2 M Tris-HCl buffer, pH 8.3), 1.1 mL of 15 U/mL peroxidase solution (dissolved with 0.2 M Tris-HCl buffer, pH 8.3), 1.1 mL of 20 mM HPPA solution (dissolved with 0.2 M Tris-HCl buffer, pH 8.3), and 22 ml of 2 M Tris-HCl buffer (pH 8.3) for 110 reaction assays.
Fluorescence intensity (Fs) was measured at 405 nm by irradiation excitation at 320 nm. The higher the DAO enzymatic activity was, the higher the fluorescence intensity. The fluorometric inhibition indicator (Fi) was obtained from the following equation: Fi=(Fs-FDrug)/(FDMSO), where the fluorescent drug blank (FDrug) was measured in the drug mixture solution (using 0.2 M Tris HCl buffer, pH 8.3, without D-alanine). A DMSO blank (FDMSO) was measured under a 100% DMSO solution.
Although FAD is generally included in the reaction mixture in the D-amino acid oxidase assay since it easily dissociates from the holoenzyme, the present method was performed without FAD. The inhibitory effect of DAO inhibitors was compared by using inhibitory concentrations leading to 50% inhibition of DAAO activity (IC50). The IC50 values were calculated by nonlinear regression model using GraphPad Prism, version 5(GraphPad Software, Inc., La Jolla, Calif.).

[1] = system: MK-801-induced anhedonia in C57BL/6 mice; test: Sucrose preference test, MK-801-induced anhedonia; assay type: in vivo; details: for Effect on MK-801 induced anhedonia (sucrose preference): MK-801 0.2 mg/kg i.p., mice; for Effect on anhedonia after acute MK-801 injection (FIG. 2): different dosages
Text: The NMDA-receptor antagonist MK-801-induced negative or cognitive deficits in C57BL/6 mice were in a well-established drug-induced schizophrenia mouse model and as a useful pharmacological animal model to identify if the RS-D7, its analog and its prodrug improve the symptoms through the NMDA receptor.
All wild-type (WT) mice used in this study were backcrossed onto a C57BL/6J background from the Laboratory Animal Center of National Taiwan University Hospital, and all behavioral examinations were conducted in WT mice. For acclimatizing to laboratory conditions, the mice were allowed free access to food and water and were housed in groups with a 12 hours light-dark cycle in a temperature and humidity controlled room of the Psychology Department, National Taiwan University. All animals within the age of 3 months were housed individually one week before experiment testing with food and water available ad libitum. In the beginning of the experiments, the mice were handled and weighted daily at least 1 week before the behavioral experiments. The entire animal procedures were performed according to protocols approved by the Animal Care and Use Committee established by the National Taiwan University.
MK-801 was dissolved in saline and administered at a volume of 0.01 ml/g body weight. RS-D7, Drug 12083 (analog of RS-D7) and was freshly dissolved in 1% CMC to the concentration of 2 mg/ml before usage. Prodrug 28095 was freshly dissolved in NMP:HP-beta-CD:H2O (5:25:70) to the concentration of 2 mg/ml before usage. All animals were given vehicle (saline) or MK-801 (0.2 mg/kg, i.p.) 25 minutes before the behavioral experiments. Both vehicle (1% CMC or NMP:HP-beta-CD:H2O) and experimental groups (RS-D7, Drug 12083 or Prodrug 28095) were treated after 5 minutes MK-801 administration with the appropriate dose via P.O. injections (at a volume of 0.01 ml/g body weight).
For investigating the treatment effect of RS-D7 for negative and cognitive symptoms, a series of three behavioral tests (run from the first to the third week), which included open field, sucrose preference test and prepulse inhibition were performed in sequence with a 1-week interval between tests.
To assess the anhedonia, one of the negative symptoms of schizophrenia, all mice underwent 4-day testing. In the beginning of the sucrose preference, all mice were deprived of water for 23 hours in all the experiment from one day before the first day. On the first day, each mouse was given free access to 2 identical bottles with water for 1 hour. Then, the 2 identical bottles were replaced that one filled with 1% (wt/vol) sucrose solution and the other with water on the second day. On the third and fourth day, each mouse was received MK-801 and RS-D7 treatment before the experiment, and also free accessed to bottles for 1 hour. After the experiment, the 2 bottles were weighted to measure the 1-hour consumption of sucrose solution and water. The sucrose preference percentage (SPP) was calculated using the following formula: % SPP=sucrose solution consumption (g)×100%/[water consumption (g)+sucrose solution consumption (g)].

T1 sequence (P00371 whole entry): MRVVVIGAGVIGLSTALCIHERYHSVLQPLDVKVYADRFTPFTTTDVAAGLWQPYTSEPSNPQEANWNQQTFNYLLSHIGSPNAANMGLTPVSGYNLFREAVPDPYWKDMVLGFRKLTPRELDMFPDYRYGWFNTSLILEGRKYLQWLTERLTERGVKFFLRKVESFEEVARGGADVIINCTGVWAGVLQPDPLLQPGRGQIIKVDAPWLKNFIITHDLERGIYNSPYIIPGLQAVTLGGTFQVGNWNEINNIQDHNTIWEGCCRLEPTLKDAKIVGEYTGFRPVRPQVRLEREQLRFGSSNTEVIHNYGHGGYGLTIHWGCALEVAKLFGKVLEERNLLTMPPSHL

IC50 (porcine kidney DAO) [µM]	SMILES	Effect on MK-801 induced anhedonia (sucrose preference) ([1]; 100 mg/kg P.O.)	Effect on MK-801 induced anhedonia (sucrose preference) ([1]; 200 mg/kg P.O.)	Effect on MK-801 induced anhedonia (sucrose preference) ([1]; 400 mg/kg P.O.)	Effect on anhedonia after acute MK-801 injection (FIG. 2) [1]	Effect on MK-801 induced anhedonia (sucrose preference) ([1]; 20 mg/kg P.O.)
1.19	COc1c(C)cnc(C[S+]([O-])c2nc3ccc(O)cc3[nH]2)c1C (centres unmarked) [RS-D7, reference compound]	rescued the MK-801 induced anhedonia deficit	rescued the MK-801 induced anhedonia deficit	rescued the MK-801 induced anhedonia deficit	rescue the anhedonia after acute MK-801 injection	
367	COc1c(C)cnc(CSc2nc3cc(C(=O)O)ccc3n2CCC2=CCCCC2)c1C [compound 12083, 1-(2-(cyclohex-1-en-1-yl)ethyl)-2-(((4-methoxy-3,5-dimethylpyridin-2-yl)methyl)thio)-1H-benzo[d]imidazole-5-carboxylic acid]				rescue the anhedonia after acute MK-801 injection	normalized MK-801 induced anhedonia
